Measurements as given in patent publication US11786479B2, “Nucleic acid nanocapsules for drug delivery and targeted gene knockdown” (University of Connecticut, priority 2017, dated 2023).

How the values were obtained:
HeLa cells = test: MTS assay of PMA-treated HeLa cells with camptothecin-loaded MMP9-NANs; type: cell-based; settings: HeLa cells treated with PMA for 21 h
Description: In order to test the correlation between enzyme expression level within a live cell and the ability of the pep-NANs to be degraded, an additional assay was run in which HeLa cells were treated with phorbol 12-myristate 13-acetate (PMA), a known inducer of MMP9 expression in HeLa cells. Cells were incubated in serum-free media and treated with MMP9-NANs carrying camptothecin, a known apoptotic cancer drug. The toxicity of the drug loaded MMP9-NANs was evaluated using an MTS assay post 21 h PMA treatment, allowing enough time for MMP9 expression.

[1] = test system: mRNA truncate within the Au NP lipoplex; test: mRNA cleavage across AuNP-templated lipid bilayer (synthetic lipoplex); type: biochemical; settings: equal concentrations of DNAzyme
Source text: A synthetic lipoplex system was designed to help monitor mRNA cleavage across a lipid bilayer (FIG. 16A). This construct was built using a gold nanoparticle (Au NP) as it can support a simplified lipid bilayer system (FIG. 16B). At the Au NPs surface, both a thiolated DNA molecule and a thiolated PEG-DSPE molecule were assembled (1:2 ratio). The DNA at the surface serves as an anchoring site for the annealing of the 19mer mRNA truncate. For this assay, the same mRNA truncate that was utilized in the kinetics assay was used. Therefore, unless cleaved, the molecule should have limited fluorescence as it has both the BHQ quencher and FAM modifications. This construct was further encapsulated with DOPE, to form a bilayer around the AuNPs, a procedure previously disclosed (Shen et al. Nanoscale, 2016, 8, 14821-14835.) These particles were then subjected to either the free DNAzyme or DNAzyme-surfactants, and the extent of mRNA cleavage evaluated as a function of increases observed in overall fluorescence. To mimic more closely the DNz-surfactant that would results from the DNz-NANs post degradation by endosomal esterases, a modified surfactant which presented only two alkynes was synthesized, attached the DNA anchor to it, and ligated DNAzymes to the anchor to form a DNAzyme-surfactant conjugate. […] All conditions had equal concentrations of DNAzyme.

MCF-7 cells = test: Confocal microscopy uptake of TYE-665 labeled DNAzyme in MCF-7 cells; type: cell-based; settings: 4 hours of incubation
Description: FIG. 15 illustrates cellular uptake and targeted gene knockdown by DNAzyme-NANs in MCF-7 cells. (A) Confocal microscopy of free DNAzymes labeled with TYE-665 dye transfected into MCF-7 cells and monitored for evidence of cellular uptake post 4 hours of incubation. (B) Confocal microscopy of DNz-NANs incubated with cells without transfection agents in which the DNAzyme on the NAN was also labeled with TYE-665 dye. […] All scale bars are 20 μm. (C) GATA-3 mRNA knockdown in MCF-7 cells. 250 nM DNz-NAN is capable of knocking down mRNA by 60% compared to untreated cells (N=3, p=0.0016). […] Error bars represent the standard error of the mean (N=3). (D) MCF-7 cells treated with 250 nM DNz-NANs, monitored for GATA-3 mRNA levels via qRT-PCR at times ranging from 4 to 48 hours of incubation.
Targeted cleavage is only possible if the DNz-NAN can disassemble and the DNz-surfactants can escape the endosomal compartments of the cell post endocytosis. To study the suitability of the DNz-NAN for cellular uptake and stability of its DNAzyme ligands in the cell, the DNz-NANs were first incubated in 10% fetal bovine serum to mimic exposure to cellular nucleases. […] 1 μM Dye-DNz-NANs were incubated with MCF-7 cells for 4 hr and monitored for evidence of uptake using confocal microscopy (FIGS. 15A and 15B). […]

GATA-3 mRNA truncate [2] = test: Cleavage assay of mRNA truncate, polyacrylamide gel; type: biochemical; settings: 37° C., 4 h
Description: Cleavage Assay. To test the activity of the GATA-3 DNAzyme, both free DNAzyme and 5 μM of ligated NANs were incubated with 0.5 μM GATA-3 mRNA truncate, both in the presence and absence of salts (10 mM MgCl2 and 100 mM NaCl). The different reactions were then run on an 8% denaturing polyacrylamide gel at 350 V for 30 minutes. The gel was scanned using both a 473 nm laser and a 532 nm laser.

GATA-3 mRNA truncate [3] = test: Kinetics cleavage assay (BHQ-mRNA fluorescence); type: biochemical; settings: 10 nM DNAzyme, mRNA truncate 10-200 nM, 37° C.
Source text: Kinetics Cleavage Assay: To determine the kinetics of the cleavage of GATA-3 by both the free and NAN-bound DNAzyme, a fluorescence-based assay was developed. A mRNA truncate corresponding to the cleavable sequence in GATA-3 mRNA was purchased (BioSearch Technologies). The truncate, herein referred to as BHQ-mRNA, was functionalized with a quencher (BHQ1) at the 3′ end and a fluorescein derivative (FAM) at the 5′ end. […] All fluorescence measurements were taken using a Horiba Jobin Yvon fluorometer and, unless otherwise stated, all samples were excited at 470 nm and measurements taken from 485 nm to […]. Samples were heated to their stated temperature using a Cary single cell peltier accessory. A solution of MgCl2 (10 mM), NaCl (100 mM), DNAzyme (10 nM) and H2O was prepared in a total volume 400 μL. The DNAzyme solution was heated to 70° C. for ten minutes prior to mixing. The sample was cooled to and held at 37° C. in the fluorometer and an initial background reading was taken. BHQ mRNA (10 nM, BioSearch Technologies) was spiked into the sample and the fluorescence monitored over 20 minutes. Additional measurements were taken at 25, 50, 75, and 200 nM concentrations of mRNA. This same procedure was repeated for the DNAzyme-NAN (10 nM). […] All non-linear fits for assigning Vmax values were determined using Kaleidagraph 4.5 graphing software.

Molecule: CCCCCCCCCCCCCC(=O)O[C@@H]1[C@@H](C)[C@@]2(O)[C@@H](C=C(CO)C[C@]3(O)C(=O)C(C)=C[C@@H]23)[C@@H]2C(C)(C)[C@]12OC(C)=O [PMA, phorbol 12-myristate 13-acetate]
- no toxicity up to (HeLa cells): up to 150 ng/mL

Molecule: DNAzyme: GATA-3 targeting DNAzyme (hgd40), SEQ ID NO:2 (DNA GTGGATGGAGGCTAGCTACAACGAGTCTTGGAG; GATA-3 DNAzyme; misc_structure (1)..(1) monophosphorylated site)
- access to and cleavage of mRNA truncate across lipid bilayer (fluorescence) [1]: limited change in signal
- cellular uptake (TYE-665 signal) (MCF-7 cells): TYE signal could be observed in the perinuclear region of the cells
- cleavage of truncated GATA-3 mRNA (gel) (GATA-3 mRNA truncate [2]): complete cleavage
- Km (GATA-3 mRNA truncate [3]): 0.059 µM
